In US9567329B2, “High penetration prodrug compositions of 1H-imidazo[4,5-c]quinolin-4-amines and 1H-imidazo[4,5-c]quinolin-4-amine-related compounds and uses thereof” (Techfields Pharma Co., Ltd, priority 2007, dated 2017):

Columns and labels:
[1] = In vitro penetration rate across human skin in modified Franz cells; type: in vitro ADME; details: 3% suspension in ethanol/pH 7.4 phosphate buffer (0.2 M) 70/30
Method: Penetration rates of HPPs and their parent drugs through human skin were measured in vitro by modified Franz cells. A Franz cell had two chambers, the top sample chamber and the bottom receiving chamber. The human skin tissue (360-400 μm thick) that separated the top and the receiving chambers was isolated from the anterior or posterior thigh areas.
A compound tested (0.5 mL, 3% in a mixture of ethanol and phosphate buffer (0.2M, pH 7.4) (v/v, 70/30)) was added to the sample chamber of a Franz cell. The receiving chamber contains 2 ml of 2% bovine serum albumin in saline which was stirred at 600 rpm. The amount of the tested compound penetrating the skin was determined by high-performance liquid chromatography (HPLC) method.
The lowest detectable apparent flux values in this method was 1 μg/cm^2/h.

[2] = system: herpes simplex virus Type I; experiment: Anti-Herpes activity, treated for 5 days, first treatment 5 days after HSV infection; type: in vivo; details: guinea pigs
Method: (§1) The evaluation of anti-Herpes activity of these prodrugs was carried out using the method described by Kern, et al. [Antimicrob. Agents Chemother. 14, 817, (1978)].
(§2) In the third experiment, female guinea pigs (n=10) were anesthetized. The guinea pigs were then infected with herpes simplex virus (type I or Type II, about 10^5 plaque forming units were used) intravaginally using a cotton swab. […] External lesions were scored daily for ten days using the following scale: 0, no lesion; 1, redness and swelling; 2, a few small vesicles; 3, several large vesicles; 4, large ulcers and necrosis; and 5, paralysis. The percent Lesion Inhibition was calculated as follows: 100−[(Sum of maximum lesion scores of treated group divided by the Sum of the scores of infected control)×100] (Table 7).

[3] = system: herpes simplex virus Type II; experiment: as above; type: in vivo; details: guinea pigs
Method: as §1, §2

[4] = system: herpes simplex virus Type I; experiment: Anti-Herpes activity, treated for 3 days before HSV infection; type: in vivo; details: guinea pigs
Method: (§3) The evaluation of anti-Herpes activity of these prodrugs was carried out using the method described by Kern, et al. [Antimicrob. Agents Chemother. 14, 817, (1978)]. In each experiment, female guinea pigs (n=10) were anesthetized. […] Virus replication was monitored by determining the amount of virus recovered with vaginal swabs taken on day 7 after infection. […] The percent Lesion Inhibition was calculated as follows: 100-[(Sum of maximum lesion scores of treated group divided by the Sum of the scores of infected control)×100] (Table 5).

[5] = system: herpes simplex virus Type II; experiment: as above; type: in vivo; details: guinea pigs
Method: as §3

interferon production [6] = experiment: Interferon inducing activity in guinea pigs (serum protection of fibroblasts from mengovirus); type: in vivo; details: serum 18 hours after treatment
Method: Without being bound by any mechanism, the ability to induce interferon production of the pro-drugs of the invention was evaluated in guinea pigs (n=10). Untreated guinea pigs provided controls.
Each test drug was administered to real back skin of a guinea pig at a specific dose of about 0.5-4.5 mg/kg respectively.
Each treated and control guinea pig was bled 18 hours after drug treatment and its serum was assayed for interferon activity. The serum was diluted and incubated with guinea pig fibroblast cells at 37° C. overnight in 96 well microtiter plates. The incubated cells were then challenged with an inoculum of mengovirus that was sufficient to kill untreated cells in two days. Two days after such challenge, the cells were examined both microscopically and after staining with crystal violet to determine whether the cells remained intact.
Table 4 contains the results of the study with activity/ml indicating the highest dilute on of serum that protected cells from virus challenge. Untreated guinea pigs provided controls.

[7] = system: herpes simplex virus Type I; experiment: Anti-Herpes activity, treated for 5 days, first treatment just after HSV infection; type: in vivo; details: guinea pigs
Method: as §1
(§4) In the second experiment, female guinea pigs (n=10) were anesthetized. Herpes simplex virus (Type I or Type II, about 10^5 plaque forming units were used) was applied intravaginally to the guinea pigs using a cotton swab. […] Virus replication was monitored by determining the amount of virus recovered with vaginal swabs taken on day 7 after infection. External lesions were scored daily for ten days using the following scale: 0, no lesion; 1, redness and swelling; 2, a few small vesicles; 3, several large vesicles; 4, large ulcers and necrosis; and 5, paralysis. The percent Lesion Inhibition was calculated as follows: 100−[(Sum of maximum lesion scores of treated group divided by the Sum of the scores of infected control)×100] (Table 6).

[8] = system: herpes simplex virus Type II; experiment: as above; type: in vivo; details: guinea pigs
Method: as §1, §4

interferon production [9] = experiment: Interferon inducing activity in guinea pigs (serum protection of fibroblasts from mengovirus); type: in vivo; details: serum 18 hours after treatment; remark: listed apart in the source
[10] = 0.5 mg/kg once per day for 5 days
[11] = 1.5 mg/kg once per day for 5 days
[12] = 4.5 mg/kg once per day for 5 days
[13] = 0.5 mg/kg once per day for 3 days before HSV infection
[14] = 1.5 mg/kg once per day for 3 days before HSV infection
[15] = 4.5 mg/kg once per day for 3 days before HSV infection

For Cl.Nc1nc2ccccc2c2c1ncn2Cc1ccccc1 [1-benzyl-1H-imidazo[4,5-c]quinolin-4-amine hydrochloride, reference compound], the “In vitro Penetration Rate of Parent compounds (apparent flux)” value [1] was 0.005 mg/cm^2/h.

With CCCCn1cnc2c(N)nc3ccccc3c21.Cl [1-butyl-1H-imidazo[4,5-c]quinolin-4-amine hydrochloride, reference compound] the “In vitro Penetration Rate of Parent compounds (apparent flux)” value [1] was 0.005 mg/cm^2/h.

For CCCCCCn1cnc2c(NC(=O)CN(C)C)nc3ccccc3c21.Cl [N,N-dimethylglycine 1-n-hexyl-1H-imidazo[4,5-c]quinolin-4-amide hydrochloride], the “% Lesion inhibition of the HPP, intravaginal, Herpes type I” value [2, 10] was 31%, the “% Lesion inhibition of the HPP, transdermal, Herpes type I” value [2, 10] was 28% and the “% Lesion inhibition of the HPP, intravaginal, Herpes type I” value [2, 11] was 62%. The “% Lesion inhibition of the HPP, transdermal, Herpes type I” value [2, 11] was 52%, the “% Lesion inhibition of the HPP, intravaginal, Herpes type I” value [2, 12] was 83% and the “% Lesion inhibition of the HPP, transdermal, Herpes type I” value [2, 12] was 82%. The “% Lesion inhibition of the HPP, intravaginal, Herpes type II” value [3, 10] was 28%, the “% Lesion inhibition of the HPP, transdermal, Herpes type II” value [3, 10] was 25% and the “% Lesion inhibition of the HPP, intravaginal, Herpes type II” value [3, 11] was 65%. For the same compound, the “% Lesion inhibition of the HPP, transdermal, Herpes type II” value [3, 11] was 55%, the “% Lesion inhibition of the HPP, intravaginal, Herpes type II” value [3, 12] was 85% and the “% Lesion inhibition of the HPP, transdermal, Herpes type II” value [3, 12] was 81%. The “% Lesion inhibition of the HPP, intravaginal, Herpes type I” value [4, 13] was 67%, the “% Lesion inhibition of the HPP, transdermal, Herpes type I” value [4, 13] was 38% and the “% Lesion inhibition of the HPP, intravaginal, Herpes type I” value [4, 14] was 91%. The “% Lesion inhibition of the HPP, transdermal, Herpes type I” value [4, 14] was 67%, the “% Lesion inhibition of the HPP, intravaginal, Herpes type I” value [4, 15] was 95% and the “% Lesion inhibition of the HPP, transdermal, Herpes type I” value [4, 15] was 91%. For the same compound, the “% Lesion inhibition of the HPP, intravaginal, Herpes type II” value [5, 13] was 68%, the “% Lesion inhibition of the HPP, transdermal, Herpes type II” value [5, 13] was 40% and the “% Lesion inhibition of the HPP, intravaginal, Herpes type II” value [5, 14] was 90%. For the same compound, the “% Lesion inhibition of the HPP, transdermal, Herpes type II” value [5, 14] was 68%, the “% Lesion inhibition of the HPP, intravaginal, Herpes type II” value [5, 15] was 95% and the “% Lesion inhibition of the HPP, transdermal, Herpes type II” value [5, 15] was 93%. For the same compound, the “Interferon level of the HPP, transdermal” value (interferon production [6]; 0.5 mg/kg once) was 11,756 activity/ml, the “Interferon level of the HPP, transdermal” value (interferon production [6]; 1.5 mg/kg once) was 22,537 activity/ml and the “Interferon level of the HPP, transdermal” value (interferon production [6]; 4.5 mg/kg once) was 61,758 activity/ml. The “% Lesion inhibition of the HPP, intravaginal, Herpes type I” value [7, 10] was 67%, the “% Lesion inhibition of the HPP, transdermal, Herpes type I” value [7, 10] was 37% and the “% Lesion inhibition of the HPP, intravaginal, Herpes type I” value [7, 11] was 91%. For the same compound, the “% Lesion inhibition of the HPP, transdermal, Herpes type I” value [7, 11] was 73%, the “% Lesion inhibition of the HPP, intravaginal, Herpes type I” value [7, 12] was 95% and the “% Lesion inhibition of the HPP, transdermal, Herpes type I” value [7, 12] was 90%. The “% Lesion inhibition of the HPP, intravaginal, Herpes type II” value [8, 10] was 68%, the “% Lesion inhibition of the HPP, transdermal, Herpes type II” value [8, 10] was 38% and the “% Lesion inhibition of the HPP, intravaginal, Herpes type II” value [8, 11] was 90%. For the same compound, the “% Lesion inhibition of the HPP, transdermal, Herpes type II” value [8, 11] was 75%, the “% Lesion inhibition of the HPP, intravaginal, Herpes type II” value [8, 12] was 95% and the “% Lesion inhibition of the HPP, transdermal, Herpes type II” value [8, 12] was 91%. For the same compound, the “Interferon level of the HPP, intravaginal” value (interferon production [9]; 0.5 mg/kg once) was 21,857 activity/ml, the “Interferon level of the HPP, intravaginal” value (interferon production [9]; 1.5 mg/kg once) was 57,147 activity/ml and the “Interferon level of the HPP, intravaginal” value (interferon production [9]; 4.5 mg/kg once) was 78,569 activity/ml.

For CCCCCCn1cnc2c(N)nc3ccccc3c21.Cl [1-hexyl-1H-imidazo[4,5-c]quinolin-4-amine hydrochloride, reference compound], the “% Lesion inhibition of the parent drug, intravaginal, Herpes type I” value [2, 10] was 2%, the “% Lesion inhibition of the parent drug, transdermal, Herpes type I” value [2, 10] was 2% and the “% Lesion inhibition of the parent drug, intravaginal, Herpes type I” value [2, 11] was 2%. The “% Lesion inhibition of the parent drug, transdermal, Herpes type I” value [2, 11] was 2%, the “% Lesion inhibition of the parent drug, intravaginal, Herpes type I” value [2, 12] was 35% and the “% Lesion inhibition of the parent drug, transdermal, Herpes type I” value [2, 12] was 18%. For the same compound, the “% Lesion inhibition of the parent drug, intravaginal, Herpes type II” value [3, 10] was 2%, the “% Lesion inhibition of the parent drug, transdermal, Herpes type II” value [3, 10] was 2% and the “% Lesion inhibition of the parent drug, intravaginal, Herpes type II” value [3, 11] was 2%. The “% Lesion inhibition of the parent drug, transdermal, Herpes type II” value [3, 11] was 2%, the “% Lesion inhibition of the parent drug, intravaginal, Herpes type II” value [3, 12] was 37% and the “% Lesion inhibition of the parent drug, transdermal, Herpes type II” value [3, 12] was 21%. The “% Lesion inhibition of the parent drug, intravaginal, Herpes type I” value [4, 13] was 4%, the “% Lesion inhibition of the parent drug, transdermal, Herpes type I” value [4, 13] was 2% and the “% Lesion inhibition of the parent drug, intravaginal, Herpes type I” value [4, 14] was 16%. For the same compound, the “% Lesion inhibition of the parent drug, transdermal, Herpes type I” value [4, 14] was 3%, the “% Lesion inhibition of the parent drug, intravaginal, Herpes type I” value [4, 15] was 80% and the “% Lesion inhibition of the parent drug, transdermal, Herpes type I” value [4, 15] was 42%. The “% Lesion inhibition of the parent drug, intravaginal, Herpes type II” value [5, 13] was 5%, the “% Lesion inhibition of the parent drug, transdermal, Herpes type II” value [5, 13] was 2% and the “% Lesion inhibition of the parent drug, intravaginal, Herpes type II” value [5, 14] was 18%. The “% Lesion inhibition of the parent drug, transdermal, Herpes type II” value [5, 14] was 3%, the “% Lesion inhibition of the parent drug, intravaginal, Herpes type II” value [5, 15] was 81% and the “% Lesion inhibition of the parent drug, transdermal, Herpes type II” value [5, 15] was 45%. For the same compound, the “% Lesion inhibition of the parent drug, intravaginal, Herpes type I” value [7, 10] was 2%, the “% Lesion inhibition of the parent drug, transdermal, Herpes type I” value [7, 10] was 2% and the “% Lesion inhibition of the parent drug, intravaginal, Herpes type I” value [7, 11] was 11%. For the same compound, the “% Lesion inhibition of the parent drug, transdermal, Herpes type I” value [7, 11] was 5%, the “% Lesion inhibition of the parent drug, intravaginal, Herpes type I” value [7, 12] was 68% and the “% Lesion inhibition of the parent drug, transdermal, Herpes type I” value [7, 12] was 43%. For the same compound, the “% Lesion inhibition of the parent drug, intravaginal, Herpes type II” value [8, 10] was 2%, the “% Lesion inhibition of the parent drug, transdermal, Herpes type II” value [8, 10] was 2% and the “% Lesion inhibition of the parent drug, intravaginal, Herpes type II” value [8, 11] was 11%. The “% Lesion inhibition of the parent drug, transdermal, Herpes type II” value [8, 11] was 6%, the “% Lesion inhibition of the parent drug, intravaginal, Herpes type II” value [8, 12] was 71% and the “% Lesion inhibition of the parent drug, transdermal, Herpes type II” value [8, 12] was 41%. The “Interferon level of the parent drug, intravaginal” value (interferon production [9]; 0.5 mg/kg once) was 286 activity/ml, the “Interferon level of the parent drug, transdermal” value (interferon production [9]; 0.5 mg/kg once) was 178 activity/ml and the “Interferon level of the parent drug, intravaginal” value (interferon production [9]; 1.5 mg/kg once) was 1,562 activity/ml. For the same compound, the “Interferon level of the parent drug, transdermal” value (interferon production [9]; 1.5 mg/kg once) was 565 activity/ml, the “Interferon level of the parent drug, intravaginal” value (interferon production [9]; 4.5 mg/kg once) was 24,786 activity/ml and the “Interferon level of the parent drug, transdermal” value (interferon production [9]; 4.5 mg/kg once) was 1,945 activity/ml.
